Assay results published in ChEMBL document CHEMBL1201862, “PubChem BioAssay data set” (2004).
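Briefly, cells in 96-well plates were exposed to five compound concentrations for 48 h, and endpoints were estimated by linear interpolation. GI50 = concentration required for 50% inhibition of growth.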 Active and inactive are the calls of the source. Cut-off read from the data, not from the text of the source: active = GI50 up to about 1.1 µM and inactive = higher.

Columns and labels:
Assay in all cases: NCI-60 cell line screen, 48 h
OVCAR-5 = system: OVCAR-5
KM12 = system: KM12
UACC-257 = system: UACC-257
HL-60 = system: HL-60
HCC 2998 = system: HCC 2998
OVCAR-3 = system: OVCAR-3
IGROV-1 = system: IGROV-1
SNB-75 = system: SNB-75
SN12C = system: SN12C
A549 = system: A549
NCI-H23 = system: NCI-H23
SF-295 = system: SF-295
TK-10 = system: TK-10
786-0 = system: 786-0
HCT-15 = system: HCT-15
NCI-H226 = system: NCI-H226
MCF7 = system: MCF7
NCI/ADR-RES = system: NCI/ADR-RES
MDA-MB-435 = system: MDA-MB-435

Row | Structure (SMILES) | GI50 (OVCAR-5) | GI50 (KM12) | GI50 (UACC-257) | GI50 (HL-60) | GI50 (HCC 2998) | GI50 (OVCAR-3) | GI50 (IGROV-1) | GI50 (SNB-75) | GI50 (SN12C) | GI50 (A549) | GI50 (NCI-H23) | GI50 (SF-295) | GI50 (TK-10) | GI50 (786-0) | GI50 (HCT-15) [µM] | GI50 (NCI-H226) | GI50 (MCF7) | GI50 (NCI/ADR-RES) | GI50 (MDA-MB-435)
1 | COC(=O)[C@H]1C=C[C@@H](C)n2c(=O)c3ccccc3c(=O)n21 | > 100 µM (inactive) | > 100 µM (inactive) | > 100 µM (inactive) | > 100 µM (inactive) | > 100 µM (inactive) | > 100 µM (inactive) | > 100 µM (inactive) | > 100 µM (inactive) | > 100 µM (inactive) | > 100 µM (inactive) | > 100 µM (inactive) | > 100 µM (inactive) | > 100 µM (inactive) | > 100 µM (inactive) | > 100 | > 100 µM (inactive) |  |  | 
2 | Cn1c(=O)c(C(=O)NC(=O)NCCCCCOC(=O)CCCCCCCCCCC(=O)OCCCCCNC(=O)NC(=O)c2cn(Cc3ccccc3)c(=O)n(C)c2=O)cn(Cc2ccccc2)c1=O | > 100 µM (inactive) | > 100 µM (inactive) | > 100 µM (inactive) | > 100 µM (inactive) | > 100 µM (inactive) | > 100 µM (inactive) | > 100 µM (inactive) | > 100 µM (inactive) | > 100 µM (inactive) | > 100 µM (inactive) | > 100 µM (inactive) |  | > 100 µM (inactive) | > 100 µM (inactive) | > 100 | > 100 µM (inactive) |  |  | 
3 | CNC1=Nc2ccc(Cl)cc2C(OP(=O)(N2CCOCC2)N2CCOCC2)=NC1 | > 100 µM (inactive) | > 100 µM (inactive) | > 100 µM (inactive) | > 100 µM (inactive) | > 100 µM (inactive) | > 100 µM (inactive) |  | > 100 µM (inactive) | > 100 µM (inactive) | > 100 µM (inactive) | > 100 µM (inactive) | > 100 µM (inactive) | > 100 µM (inactive) | > 100 µM (inactive) | > 100 | > 100 µM (inactive) |  |  | 
4 | O=C(NCCC1CN(C(=O)OCc2ccccc2)c2ccccc21)OCc1ccccc1 (centres undefined) | > 100 µM (inactive) | > 100 µM (inactive) | > 100 µM (inactive) |  | > 100 µM (inactive) | > 100 µM (inactive) | > 100 µM (inactive) | > 100 µM (inactive) |  | 85.3 µM (inactive) | > 100 µM (inactive) | > 100 µM (inactive) | > 100 µM (inactive) | > 100 µM (inactive) | > 100 |  | 60.4 µM (inactive) | > 100 µM (inactive) | > 100 µM (inactive)
5 | CN(C=O)/C=C/c1cc(O)ccc1O | 40.6 µM (inactive) | 63.7 µM (inactive) | 30.3 µM (inactive) | 14.2 µM (inactive) | > 63 µM (inactive) | 18.2 µM (inactive) | 51.3 µM (inactive) | 21.7 µM (inactive) | 20.9 µM (inactive) | > 78 µM (inactive) | 36.8 µM (inactive) | 32.5 µM (inactive) | 26.8 µM (inactive) | 18.5 µM (inactive) | 36.6 | 39.7 µM (inactive) |  |  | 
6 | CN1CCN(c2n[nH]c(=O)c3c2nnn3Cc2ccccc2)CC1 |  | > 100 µM (inactive) | > 100 µM (inactive) | > 100 µM (inactive) | > 100 µM (inactive) | > 100 µM (inactive) |  | > 100 µM (inactive) | 15.5 µM (inactive) | > 100 µM (inactive) | > 100 µM (inactive) | > 100 µM (inactive) | > 100 µM (inactive) | > 100 µM (inactive) | > 100 |  | > 100 µM (inactive) | > 100 µM (inactive) | > 100 µM (inactive)
7 | CC(=O)/C=C/c1cccc(N=S)c1 | > 69 µM (inactive) | 6.68 µM (inactive) | 29.4 µM (inactive) | 5.79 µM (inactive) | 12.7 µM (inactive) | 19.2 µM (inactive) | 19.2 µM (inactive) | 21.1 µM (inactive) | 25.6 µM (inactive) | 26.5 µM (inactive) | 30.7 µM (inactive) | 15.2 µM (inactive) | > 52.8 µM (inactive) | 6 µM (inactive) | 8.79 | 46 µM (inactive) |  |  | 
8 | COC1(C)CNCC(C)(C)NC(=O)C(C)(OC)CNCC(C)(C)NC1=O (centres undefined) | > 100 µM (inactive) | > 100 µM (inactive) | > 100 µM (inactive) | > 100 µM (inactive) | > 100 µM (inactive) | > 100 µM (inactive) | > 100 µM (inactive) | > 100 µM (inactive) | > 100 µM (inactive) | > 100 µM (inactive) | > 100 µM (inactive) | > 100 µM (inactive) | > 100 µM (inactive) | > 100 µM (inactive) | > 100 | > 100 µM (inactive) |  |  | 
9 | [N-]=[N+]=Nc1ncnc2c1sc(=S)n2-c1ccccc1 | > 100 µM (inactive) | > 100 µM (inactive) | > 100 µM (inactive) | 84.9 µM (inactive) | > 100 µM (inactive) | > 100 µM (inactive) | > 100 µM (inactive) | > 100 µM (inactive) | > 100 µM (inactive) | > 100 µM (inactive) | > 100 µM (inactive) | > 100 µM (inactive) | > 100 µM (inactive) | > 100 µM (inactive) | > 100 | > 100 µM (inactive) |  |  | 
10 | C=C1C(=O)OC2/C=C(/C)C3CC(O)C(C)(CC(OC(=O)/C(C)=C/C)C12)O3 (centres undefined) | 8.61 µM (inactive) | 3.33 µM (inactive) | 4.25 µM (inactive) | 0.759 µM (active) | 13.2 µM (inactive) | 3.78 µM (inactive) | 5.26 µM (inactive) | 9.04 µM (inactive) | 3.27 µM (inactive) | 6.61 µM (inactive) | 4.49 µM (inactive) | > 39.4 µM (inactive) | 8.24 µM (inactive) | 3.29 µM (inactive) | 1.76 | 14.7 µM (inactive) |  |  | 
11 | COC(CC1(OC)OC(=O)C=C1N)OC (centres undefined) | > 100 µM (inactive) | > 100 µM (inactive) | > 100 µM (inactive) | > 100 µM (inactive) | > 100 µM (inactive) | > 100 µM (inactive) | > 100 µM (inactive) | 76.7 µM (inactive) | > 100 µM (inactive) | > 100 µM (inactive) | > 100 µM (inactive) | > 100 µM (inactive) | > 100 µM (inactive) | > 100 µM (inactive) | > 100 | > 100 µM (inactive) |  |  | 
12 | COC(=O)c1cccc2cccc(C(=O)Nc3ccc(C)cc3C)c12 | > 100 µM (inactive) | > 100 µM (inactive) | > 100 µM (inactive) | 1.08 µM (active) | > 100 µM (inactive) | 72.8 µM (inactive) | > 100 µM (inactive) | > 100 µM (inactive) | > 100 µM (inactive) | > 100 µM (inactive) | > 100 µM (inactive) | > 100 µM (inactive) | > 100 µM (inactive) | > 100 µM (inactive) | > 100 | > 100 µM (inactive) |  |  | 
13 | Cc1ccc(NC(=O)CCc2n[nH]c(=S)o2)cc1 | > 100 µM (inactive) | > 100 µM (inactive) | > 100 µM (inactive) | > 100 µM (inactive) | > 100 µM (inactive) | > 100 µM (inactive) | > 100 µM (inactive) | > 100 µM (inactive) | > 100 µM (inactive) | > 100 µM (inactive) | > 100 µM (inactive) | > 100 µM (inactive) | > 100 µM (inactive) | > 100 µM (inactive) | > 100 | > 100 µM (inactive) |  |  | 
14 | CC(=O)Nc1ccccc1Sc1ccccc1 | > 100 µM (inactive) | > 100 µM (inactive) | > 100 µM (inactive) | > 100 µM (inactive) | > 100 µM (inactive) | 2.6 µM (inactive) | > 100 µM (inactive) | 39.3 µM (inactive) | > 100 µM (inactive) | > 100 µM (inactive) | > 100 µM (inactive) | > 100 µM (inactive) | > 100 µM (inactive) | > 100 µM (inactive) | > 100 | > 100 µM (inactive) |  |  | 
15 | CCCCCCC(O)C/C=C/CCCCCC/C(C(=O)OC)=C(/O)C(=O)OCC (centres undefined) | > 100 µM (inactive) | > 100 µM (inactive) | > 100 µM (inactive) | 67.1 µM (inactive) | > 100 µM (inactive) | > 100 µM (inactive) | > 100 µM (inactive) | > 100 µM (inactive) | > 100 µM (inactive) | > 100 µM (inactive) | > 100 µM (inactive) | > 100 µM (inactive) | > 100 µM (inactive) | > 100 µM (inactive) | > 100 | > 100 µM (inactive) |  |  | 
16 | O=C(Nc1nc2ccccc2n1Cc1ccccc1)NC12CC3CC(CC(C3)C1)C2 | > 100 µM (inactive) | > 100 µM (inactive) | > 100 µM (inactive) | > 100 µM (inactive) | > 100 µM (inactive) | 38.5 µM (inactive) | 75.3 µM (inactive) | 22.4 µM (inactive) | 82.8 µM (inactive) | 71.9 µM (inactive) | 42.9 µM (inactive) | 13.4 µM (inactive) | 65.5 µM (inactive) | 24 µM (inactive) | > 100 | 51.6 µM (inactive) |  |  | 
17 | CCN(CC)c1ccc(/N=N/c2ccc(-c3nc4cccnc4s3)cc2)cc1 | > 100 µM (inactive) | > 100 µM (inactive) | > 100 µM (inactive) | > 100 µM (inactive) | > 100 µM (inactive) | > 100 µM (inactive) | > 100 µM (inactive) | 32.8 µM (inactive) | > 100 µM (inactive) | 88.7 µM (inactive) | > 100 µM (inactive) | > 100 µM (inactive) | > 100 µM (inactive) | 45.4 µM (inactive) |  | > 100 µM (inactive) |  |  | 
